The subject of assay [1] is HaloTag-ActA fusion protein. Nature of the assay: Chloroalkane penetration assay (HaloTag). The class given is cell-based. To be noted: HEK293-HaloTag cells, chloroalkane-tagged peptide, 24 h with FBS, then 5 μM TMR-ct. The source says: Assay design. HEK293 cells were produced that stably express a HaloTag-ActA fusion protein (“HEK293-HaloTag”) which ensures fusion protein localization to the outer mitochondrial membrane with exposure to the cytosol. The HaloTag protein rapidly reacts covalently with short chloroalkane-containing compounds, occupying the active site and preventing further reactions. The chloroalkane penetration assay utilizes this reactivity in a pulse-chase assay where cells are first treated with cCPPs-chloroalkane of interest, followed by incubation with cell-permeable fluorescent dye tetramethylrhodamine-chloroalkane (“TMR-ct”). If cCPPs have gained access to the cytosol, they will react with HaloTag and prevent it from reacting with TMR-ct. The relative cell-penetrating efficiency of compounds can therefore be determined by their ability to reduce cellular TMR fluorescence after a washout period with this value expressed as IC50.
Cell penetrating peptides. Cell penetrating peptides having the sequences indicated in Table 13 (below) were functionalized on the lysine residue with a chloroalkane tag of the sequence N^1-(2-(2-((5-chlorohexyl)oxy)ethoxy)ethyl-N^4-(2-(2-(2-oxoethoxy)ethoxy)ethyl)succinamide (referred to as “chloroalkane” in Table 13), purified, and prepared as stock solutions in DMSO with concentration determined by A280 or weight as applicable.
Determination of cell-penetrating efficiency. Compounds to be evaluated were prepared as stock solutions in DMSO and diluted in PBS before addition to HEK293-HaloTag ells as a serial dilution from 30 μM to 0.5 nM. Cells were incubated with the compounds at a given concentration for 24 h in the presence of FBS at 37° C. After incubation, cells were washed thoroughly with PBS and to the cells was added fresh, serum-free media containing 5 μM TMR-ct and incubated for 30 min. After incubation, the cells were washed and incubated in fresh media to wash-out any unreacted TMR-ct. Cells were then imaged and quantified for cellular fluorescence using high-content imaging. Values are normalized to vehicle-treated cells and an IC50 calculated using a 4-parameter logarithmic fit in GraphPad PRISM v.8.

Assay [2] has as its system IRF5 protein.
In assay [3] the test system is exon 23 of DMD.
In assay [4] the test system is exon 44 of human dystrophin mRNA. Nature of the assay: Exon 44 skipping by RT-PCR in hDMD mice. The class given is in vivo. To be noted: hDMD mice, 5 days. How it is done: The hemizygous mice were further genotyped at Transnetyx. All groups were dosed 5 mL/kg per animal by intravenous (iv) injection and sacrificed after 5 days post injection. All animals were euthanized by CO2 asphyxiation followed by terminal blood collection via cardiac puncture. Maximum obtainable volume of whole blood was collected into lithium heparin tubes and processed to plasma. A portion of plasma was analyzed for clinical chemistries by the Testing Facility (IDEXX) and the rest stored frozen at nominally −70° C. […] Animals were age matched and assigned into eight (8) treatment groups according to Table 15. […] All animals survived until their scheduled euthanasia time. Tissues were collected per protocol. The amount of AC and a cCPP-AC in various tissue samples was quantified by LC-MS. Exon skipping in different tissues were analyzed by RT-PCR and the quantification of exon 44 correction.
Exon Skipping Analysis by RT-PCR: hDMD mice and NHP express full-length human dystrophin mRNA. The delivery of AC can alter the splicing and result in a shortened dystrophin mRNA after exon 44 skipping. The tissues were homogenized using 1 mL of RLT lysis buffer (Qiagen, Cat #79216). The detection of splicing correction process was measured by RT-PCR where extracted RNAs from tissues were first reverse-transcribed into cDNA and further analyzed by one step RT-PCR using the following primer set: forward primer 5′-[…]-3′ (SEQ ID NO: 262) and reverse primer 5′-[…]-3′ (SEQ ID NO: 263). […] Quantification of the relative intensity of the bands corresponding to skipped and unskipped transcripts were performed to assess AC-induced exon-44-skipping efficacy. The degree (percentage) of splicing correction detected by RT-PCR was calculated using the following equation: % correction=(intensity of 493 bp fragment band)/(intensity of 493 bp fragment band+intensity of 641 bp fragment band).

Where [5] appears, read: MDX mice, single IV 20 mg/kg, day 5.

Read-outs that look alike come from different tables or passages of the source. Starred links: 1 amine or outer side, 2 acyl side, 3 side chain; linkers in the order of their positions; H or OH if unused. Non-standard residues stand in square brackets, D forms with d. Residues, ends and D or L forms follow the SMILES beside them. Groups on a side chain read outwards from the residue. *: point of attachment. X1 = NC(=O)[C@H](CCCCNC(=O)COCCOCCNC(=O)CCC(=O)NCCOCCOCCCCCCCl)N*; Ala(piperidin-4-yl) = O=C([C@H](CC1CCN([*:3])CC1)N[*:1])[*:2]; Phe(4-guanidino) = N=C(N)Nc1ccc(C[C@H](N)C(=O)O)cc1; 2Nal = N[C@@H](Cc1ccc2ccccc2c1)C(=O)O; Lys(Me2) = CN(C)CCCC[C@H](N)C(=O)O; hArg = N=C(N)NCCCC[C@H](N)C(=O)O; Cit = NC(=O)NCCC[C@H](N)C(=O)O; Agb = N=C(N)NCC[C@H](N)C(=O)O; Agp = N=C(N)NC[C@H](N)C(=O)O; PEG4 = NCCOCCOCCOCCOCCC(=O)O

Usually IC50 stands for the concentration that inhibits the measured activity by half.

`N=C(N)NCCC[C@H]1NC(=O)[C@H](CCCNC(N)=O)NC(=O)[C@@H](CCCNC(=N)N)NC(=O)[C@H](CCCNC(N)=O)NC(=O)[C@H](Cc2ccc3ccccc3c2)NC(=O)[C@@H](Cc2ccccc2)NC(=O)[C@H](Cc2ccccc2)NC(=O)[C@H](CCC(=O)NCCOCCOCCOCCOCCC(=O)N[C@@H](CCCCNC(=O)COCCOCCNC(=O)CCC(=O)NCCOCCOCCCCCCCl)C(N)=O)NC1=O` [Compound 1a, cyclo(FfΦ-Cit-r-Cit-rQ)-PEG4-K-NH2] (cyclo([2Nal][Cit][dR][Cit][dR]E([PEG4-X1])F[dF])): the IC50 in assay [1] is 849 nM.
The same measure, in the same setting: then `N=C(N)NCCC[C@H]1NC(=O)[C@H](CC2CCNCC2)NC(=O)[C@@H](CCCNC(=N)N)NC(=O)[C@H](CC2CCNCC2)NC(=O)[C@H](Cc2ccc3ccccc3c2)NC(=O)[C@@H](Cc2ccccc2)NC(=O)[C@H](Cc2ccccc2)NC(=O)[C@H](CCC(=O)NCCOCCOCCOCCOCCC(=O)N[C@@H](CCCCNC(=O)COCCOCCNC(=O)CCC(=O)NCCOCCOCCCCCCCl)C(N)=O)NC1=O` [Compound 2a, cyclo(FfΦ-Pia-r-Pia-rQ)-PEG4-K-NH2] (cyclo([2Nal][Ala(piperidin-4-yl)][dR][Ala(piperidin-4-yl)][dR]E([PEG4-X1])F[dF])), with 881 nM; and `CN(C)CCCC[C@@H]1NC(=O)[C@H](Cc2ccc3ccccc3c2)NC(=O)[C@@H](Cc2ccccc2)NC(=O)[C@H](Cc2ccccc2)NC(=O)[C@H](CCC(=O)NCCOCCOCCOCCOCCC(=O)N[C@@H](CCCCNC(=O)COCCOCCNC(=O)CCC(=O)NCCOCCOCCCCCCCl)C(N)=O)NC(=O)[C@@H](CCCNC(=N)N)NC(=O)[C@H](CCCCN(C)C)NC(=O)[C@@H](CCCNC(=N)N)NC1=O` [Compound 3a, cyclo(FfΦ-Dml-r-Dml-rQ)-PEG4-K-NH2] (cyclo(F[dF][2Nal][Lys(Me2)][dR][Lys(Me2)][dR]E([PEG4-X1]))), with 932 nM; and `N=C(N)NCCC[C@H]1NC(=O)[C@H](CNC(=N)N)NC(=O)[C@@H](CCCNC(=N)N)NC(=O)[C@H](CNC(=N)N)NC(=O)[C@H](Cc2ccc3ccccc3c2)NC(=O)[C@@H](Cc2ccccc2)NC(=O)[C@H](Cc2ccccc2)NC(=O)[C@H](CCC(=O)NCCOCCOCCOCCOCCC(=O)N[C@@H](CCCCNC(=O)COCCOCCNC(=O)CCC(=O)NCCOCCOCCCCCCCl)C(N)=O)NC1=O` [Compound A, cyclo(FfΦ-Agp-r-Agp-rQ)-PEG4-K-NH2] (cyclo([2Nal][Agp][dR][Agp][dR]E([PEG4-X1])F[dF])), with 626 nM.
`N=C(N)NCCC[C@H]1NC(=O)[C@H](CCNC(=N)N)NC(=O)[C@@H](CCCNC(=N)N)NC(=O)[C@H](CCNC(=N)N)NC(=O)[C@H](Cc2ccc3ccccc3c2)NC(=O)[C@@H](Cc2ccccc2)NC(=O)[C@H](Cc2ccccc2)NC(=O)[C@H](CCC(=O)NCCOCCOCCOCCOCCC(=O)N[C@@H](CCCCNC(=O)COCCOCCNC(=O)CCC(=O)NCCOCCOCCCCCCCl)C(N)=O)NC1=O` [Compound B, cyclo(FfΦ-Agb-r-Agb-rQ)-PEG4-K-NH2] (cyclo([2Nal][Agb][dR][Agb][dR]E([PEG4-X1])F[dF])) gave an IC50 in assay [1] of 695 nM.
On the same count and under the same terms, the figure for `N=C(N)NCCCC[C@@H]1NC(=O)[C@H](Cc2ccc3ccccc3c2)NC(=O)[C@@H](Cc2ccccc2)NC(=O)[C@H](Cc2ccccc2)NC(=O)[C@H](CCC(=O)NCCOCCOCCOCCOCCC(=O)N[C@@H](CCCCNC(=O)COCCOCCNC(=O)CCC(=O)NCCOCCOCCCCCCCl)C(N)=O)NC(=O)[C@@H](CCCNC(=N)N)NC(=O)[C@H](CCCCNC(=N)N)NC(=O)[C@@H](CCCNC(=N)N)NC1=O` [Compound C, cyclo(FfΦ-hR-r-hR-rQ)-PEG4-K-NH2] (cyclo([2Nal][hArg][dR][hArg][dR]E([PEG4-X1])F[dF])) is 786 nM.
Regarding `N=C(N)NCCC[C@H]1NC(=O)[C@H](Cc2ccc(NC(=N)N)cc2)NC(=O)[C@@H](CCCNC(=N)N)NC(=O)[C@H](Cc2ccc(NC(=N)N)cc2)NC(=O)[C@H](Cc2ccc3ccccc3c2)NC(=O)[C@@H](Cc2ccccc2)NC(=O)[C@H](Cc2ccccc2)NC(=O)[C@H](CCC(=O)NCCOCCOCCOCCOCCC(=O)N[C@@H](CCCCNC(=O)COCCOCCNC(=O)CCC(=O)NCCOCCOCCCCCCCl)C(N)=O)NC1=O` [Compound D, cyclo(FfΦ-4gp-r-4gp-rQ)-PEG4-K-NH2] (cyclo([2Nal][Phe(4-guanidino)][dR][Phe(4-guanidino)][dR]E([PEG4-X1])F[dF])), it took 695 nM to reach half-maximal inhibition in assay [1] (IC50).
As for `CCOCc1nc2c(N)nc3ccccc3c2n1CC(C)(C)O` [Compound R848, reference compound], in assay [2], the IRF5 protein expression entry was “significantly increases IRF5 Protein expression”.
On to `N=C(N)NCCC[C@@H]1NC(=O)[C@H](Cc2ccc3ccccc3c2)NC(=O)[C@@H](Cc2ccccc2)NC(=O)[C@H](Cc2ccccc2)NC(=O)[C@H](CCC(=O)NCCOCCOCCOCCOCCC(=O)N[C@@H](CCCCNC(=O)COCCOCCNC(=O)CCC(=O)NCCOCCOCCCCCCCl)C(N)=O)NC(=O)[C@@H](CCCNC(=N)N)NC(=O)[C@H](CCCNC(=N)N)NC(=O)[C@@H](CCCNC(=N)N)NC1=O` [EEV12, cyclo(FfΦRrRrQ)-PEG4-K(chloroalkane)-NH2, reference compound] (cyclo([2Nal]R[dR]R[dR]E([PEG4-X1])F[dF])), for which inhibition in assay [1] was half-maximal at 792 nM (IC50). This lies in the sub-micromolar range.
“Ac-KBK-AEEA-K(cyclo[FGFGRGRQ])-AEEA-K(N3)-NH2 [EEV-PMO-MDX-5]”: the “exon skipping in heart vs diaphragm, tibialis anterior, triceps” value (from here on “exon skipping in heart vs diaphragm”) in assay [3] (mouse, in vivo, iv, 20 mg/kg) is reported as “a lower level of exon skipping in heart tissue”.
Turning to “Ac-PKKKRKV-AEEA-K(cyclo[FGFGRGRQ])-AEEA-K(N3)-NH2 [EEV-PMO-MDX-4]”, the “exon skipping in heart vs diaphragm” value in assay [3] (setting [5]) was “a lower level of exon skipping in heart tissue”.
With “Ac-PKKKRKV-AEEA-K(cyclo[FGFGRGRQ])-PEG12-OH [EEV-PMO-IRF5-1]”, the “IRF-5 protein expression compared to cells stimulated with R848” value in assay [2] (RAW 264.7 cells, all tested concentrations) is “significant reduction in IRF-5 protein expression”. Also, the IRF5 protein levels result in assay [2] (mouse macrophage cells, 30 μM, 10 μM and 3 μM) is reported as “statistically significant reduction of IRF5 protein levels”.
Turning to “Ac-PKKKRKV-AEEA-K(cyclo[FfFGRGRQ])-AEEA-K(N3)-NH2 [EEV-PMO-MDX-7]”, the “exon skipping in heart vs diaphragm” value in assay [3] (setting [5]) was “a lower level of exon skipping in heart tissue”.
On to “Ac-PKKKRKV-AEEA-K(cyclo[GfFGrGrQ])-PEG12-OH [EEV-PMO-DMD44-2]”, for which the exon skipping came out at 14% in assay [4] (10 mpk IV, Diaphragm); 22% in assay [4] (10 mpk IV, TiA); 17% in assay [4] (10 mpk IV, Triceps); 0% in assay [4] (10 mpk IV, heart); 35% in assay [4] (20 mpk IV, Diaphragm); 58% in assay [4] (20 mpk IV, TiA). In addition, the exon skipping in assay [4] (20 mpk IV, Triceps) was found to be 44; in assay [4] (20 mpk IV, heart), 2%; in assay [4] (40 mpk IV, Diaphragm) it was 83%; in assay [4] (40 mpk IV, TiA) it was 95%; in assay [4] (40 mpk IV, Triceps) it was 92%; in assay [4] (40 mpk IV, heart), 17%. The exon skipping is reported as 99% in assay [4] (80 mpk IV, Diaphragm); 99% in assay [4] (80 mpk IV, TiA); 98% in assay [4] (80 mpk IV, Triceps); 79% in assay [4] (80 mpk IV, heart). In addition, the “minimum efficacious dose in the heart” value in assay [4] (IV) is 40 mpk.

The record behind these values is patent US20260199493A1 (priority 2021, published 2026).
